The record followed here is ChEMBL document CHEMBL1909046, “DrugMatrix in vitro pharmacology data”.

Assay [1] addresses T1, Alpha-2C adrenergic receptor (Homo sapiens, UniProt P18825).
T1 sequence (P18825 whole entry): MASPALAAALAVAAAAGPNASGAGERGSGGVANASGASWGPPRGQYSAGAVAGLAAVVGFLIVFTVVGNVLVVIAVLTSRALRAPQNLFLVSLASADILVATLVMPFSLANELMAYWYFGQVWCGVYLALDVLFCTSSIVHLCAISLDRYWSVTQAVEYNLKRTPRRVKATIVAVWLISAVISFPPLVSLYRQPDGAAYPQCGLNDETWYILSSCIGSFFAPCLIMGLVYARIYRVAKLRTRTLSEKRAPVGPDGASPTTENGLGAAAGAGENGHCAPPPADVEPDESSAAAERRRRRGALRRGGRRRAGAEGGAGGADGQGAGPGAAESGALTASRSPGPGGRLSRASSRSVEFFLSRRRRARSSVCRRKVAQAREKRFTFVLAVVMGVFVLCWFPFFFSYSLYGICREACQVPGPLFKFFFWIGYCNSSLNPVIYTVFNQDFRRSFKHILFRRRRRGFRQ
Kind of assay: DRUGMATRIX: Adrenergic Alpha-2C radioligand binding (ligand: [3H] MK-912). The format is cell membranes, Sf9, Membrane.

In assay [2] the target is Aldo-keto reductase family 1 member B1 (Rattus norvegicus, UniProt P07943). Kind of assay: biochemical. In kind it is tissue-based, Lens of camera-type eye.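 Further: inhibition of aldose reductase enzyme activity, measured with DL-glyceraldehyde as the substrate; in other assays of this panel Not Active means under 50% inhibition at 10 µM.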
Assay [3] deals with C-C chemokine receptor type 2 (Homo sapiens, UniProt P41597). In kind it is cell membranes, CHO-K1, Membrane. The note with it: cho-k1.
Assay [4] is described as follows: DRUGMATRIX: Glutamate, NMDA, Phencyclidine radioligand binding (ligand: [3H] TCP). The settings on record: Not Active = under 50% inhibition at 10 µM. The format is cell membranes, Rattus norvegicus, Wistar, Cerebral cortex, Membrane.
Assay [5] is described as follows: DRUGMATRIX: Potassium Channel [KATP] radioligand binding (ligand: [3H] Glyburide). The format is cell membranes, Membrane. The note with it: hit-t15; Not Active = under 50% inhibition at 10 µM.

Chain of C-C chemokine receptor type 2 (P41597 whole entry): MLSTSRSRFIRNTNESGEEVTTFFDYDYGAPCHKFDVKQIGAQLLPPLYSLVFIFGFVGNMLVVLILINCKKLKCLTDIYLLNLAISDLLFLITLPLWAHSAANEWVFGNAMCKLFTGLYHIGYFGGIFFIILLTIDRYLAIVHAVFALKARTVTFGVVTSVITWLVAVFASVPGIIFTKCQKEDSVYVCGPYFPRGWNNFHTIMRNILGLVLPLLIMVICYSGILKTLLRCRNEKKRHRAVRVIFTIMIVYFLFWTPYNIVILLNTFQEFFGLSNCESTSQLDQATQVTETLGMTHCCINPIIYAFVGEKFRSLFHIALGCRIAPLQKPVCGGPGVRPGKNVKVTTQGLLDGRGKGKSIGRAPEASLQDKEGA

Regarding `O=c1cc(-c2ccccc2)oc2ccc3ccccc3c12` [BETA-NAPHTHOFLAVONE], the IC50 result in assay [1] (sf9), in assay [2], in assay [3], in assay [4] and in assay [5] was “Not Active” each time. For the same molecule, the Ki result in assay [4] and in assay [5] was “Not Active” in each case.

For `CS(=O)(=O)OCCCCOS(C)(=O)=O` [BUSULFAN], the IC50 entry in assay [1] (sf9), in assay [2], in assay [3], in assay [4] and in assay [5] was “Not Active” each time. In addition, the Ki entry in assay [4] and in assay [5] was “Not Active” each time.

Take `O=C(/C=C/c1ccc(O)c(O)c1)OCCc1ccccc1` [CAFFEIC ACID PHENETHYL ESTER]: the IC50 (usually the concentration at which inhibition is half-maximal) was “Not Active” in assay [1] (sf9); 1410 nM in assay [2] (read-out: IC50); “Not Active” in assay [3]; “Not Active” in assay [4]; “Not Active” in assay [5]. Further, the Ki result in assay [4] and in assay [5] was “Not Active” each time.

For the molecule `COc1cc(CNC(=O)CCCC/C=C/C(C)C)ccc1O` [CAPSAICIN], the IC50 entry in assay [1] (sf9), in assay [2], in assay [3], in assay [4] and in assay [5] was “Not Active” each time. In addition, the Ki result in assay [4] and in assay [5] was “Not Active” throughout.

For the molecule `NC(=O)N1c2ccccc2C=Cc2ccccc21` [CARBAMAZEPINE], the IC50 result in assay [1] (sf9), in assay [2], in assay [3], in assay [4] and in assay [5] was “Not Active” each time. For the same molecule, the inhibition constant (Ki) result in assay [4] and in assay [5] was “Not Active” throughout.

Regarding `CCOC(=O)n1ccn(C)c1=S` [CARBIMAZOLE], the IC50 result in assay [1] (sf9), in assay [2], in assay [3], in assay [4] and in assay [5] was “Not Active” each time. Further, the inhibition constant Ki entry in assay [4] and in assay [5] was “Not Active” in each case.

Take `Oc1ccccc1O` [CATECHOL]: the IC50 entry in assay [1] (sf9), in assay [2], in assay [3], in assay [4] and in assay [5] was “Not Active” each time. The Ki entry in assay [4] and in assay [5] was “Not Active” each time.

Take `CO[C@@]1(NC(=O)CSCC#N)C(=O)N2C(C(=O)O)=C(CSc3nnnn3C)CS[C@@H]21` [CEFMETAZOLE]: the IC50 result in assay [1] (sf9), in assay [2], in assay [3], in assay [4] and in assay [5] was “Not Active” in each case. In addition, the Ki entry in assay [4] and in assay [5] was “Not Active” in each case.

As for `CN(C(=O)CCCOc1ccc2[nH]c(=O)ccc2c1)C1CCCCC1` [CILOSTAMIDE], the concentration for half-maximal inhibition (IC50) entry in assay [1] (sf9), in assay [2], in assay [3], in assay [4] and in assay [5] was “Not Active” in each case. Also, the inhibition constant Ki entry in assay [4] and in assay [5] was “Not Active” in each case.

With `CC(C)(Oc1ccc(C2CC2(Cl)Cl)cc1)C(=O)O` (centres undefined) [CIPROFIBRATE], the IC50 entry in assay [1] (sf9), in assay [2], in assay [3], in assay [4] and in assay [5] was “Not Active” each time. Besides, the inhibitory constant (Ki) result in assay [4] and in assay [5] was “Not Active” throughout.

`Nc1nc(Cl)nc2c1ncn2[C@H]1C[C@H](O)[C@@H](CO)O1` [CLADRIBINE]: the 50% inhibitory concentration (IC50) entry in assay [1] (sf9), in assay [2], in assay [3], in assay [4] and in assay [5] was “Not Active” each time. Also, the Ki entry in assay [4] and in assay [5] was “Not Active” in each case.

In the case of `CC[C@H]1OC(=O)[C@H](C)[C@@H](O[C@H]2C[C@@](C)(OC)[C@@H](O)[C@H](C)O2)[C@H](C)[C@@H](O[C@@H]2O[C@H](C)C[C@H](N(C)C)[C@H]2O)[C@](C)(OC)C[C@@H](C)C(=O)[C@H](C)[C@@H](O)[C@]1(C)O` [CLARITHROMYCIN], the IC50 entry in assay [1] (sf9), in assay [2], in assay [3], in assay [4] and in assay [5] was “Not Active” throughout. In addition, the Ki entry in assay [4] and in assay [5] was “Not Active” each time.

Regarding `CCC[C@@H]1C[C@@H](C(=O)N[C@@H]([C@H]2O[C@H](SC)[C@H](O)[C@@H](O)[C@H]2O)[C@H](C)Cl)N(C)C1` [CLINDAMYCIN], the IC50 entry in assay [1] (sf9), in assay [2], in assay [3], in assay [4] and in assay [5] was “Not Active” in each case. Further, the Ki entry in assay [4] and in assay [5] was “Not Active” in each case.

For the molecule `O=C(O)c1cc(=O)c2c(OCC(O)COc3cccc4oc(C(=O)O)cc(=O)c34)cccc2o1` [CROMOLYN], the IC50 result in assay [1] (sf9), in assay [2], in assay [3], in assay [4] and in assay [5] was “Not Active” throughout. For the same molecule, the Ki entry in assay [4] and in assay [5] was “Not Active” in each case.

`O=P1(N(CCCl)CCCl)NCCCO1` (centres undefined) [CYCLOPHOSPHAMIDE ANHYDROUS]: the IC50 entry in assay [1] (sf9), in assay [2], in assay [3], in assay [4] and in assay [5] was “Not Active” in each case. Moreover, the inhibition constant (Ki) entry in assay [4] and in assay [5] was “Not Active” throughout.

`CC(=O)O[C@]1(C(C)=O)CC[C@H]2[C@@H]3C=C(Cl)C4=CC(=O)[C@@H]5C[C@@H]5[C@]4(C)[C@H]3CC[C@@]21C` [CYPROTERONE ACETATE]: the IC50 result in assay [1] (sf9), in assay [2], in assay [3], in assay [4] and in assay [5] was “Not Active” each time. For the same molecule, the Ki entry in assay [4] and in assay [5] was “Not Active” throughout.

As for `Nc1nc(N)nc(NC2CC2)n1` [CYROMAZINE], the IC50 result in assay [1] (sf9), in assay [2], in assay [3], in assay [4] and in assay [5] was “Not Active” throughout. For the same molecule, the Ki entry in assay [4] and in assay [5] was “Not Active” in each case.

On to `C#C[C@]1(O)CC[C@H]2[C@@H]3CCC4=Cc5oncc5C[C@]4(C)[C@H]3CC[C@@]21C` [DANAZOL], for which the IC50 in assay [1] (read-out: IC50) is 23.8 µM; in assay [2] it was “Not Active”; in assay [3], “Not Active”; in assay [4], “Not Active”; in assay [5], “Not Active”. Besides, the inhibition constant Ki (commonly the dissociation constant of the complex between target and ligand, obtained from inhibition or displacement) in assay [1] (read-out: Ki) was 3.45 µM; in assay [4] it was “Not Active”; in assay [5], “Not Active”.

For `CCN[C@@H](C)Cc1cccc(C(F)(F)F)c1` [DEXFENFLURAMINE], the IC50 entry in assay [1] (sf9), in assay [2], in assay [3], in assay [4] and in assay [5] was “Not Active” throughout. In addition, the Ki result in assay [4] and in assay [5] was “Not Active” in each case.

In the case of `C[C@H](C(=O)O)c1cccc(C(=O)c2ccccc2)c1` [DEXKETOPROFEN], the IC50 result in assay [1] (sf9), in assay [2], in assay [3], in assay [4] and in assay [5] was “Not Active” in each case. Moreover, the Ki entry in assay [4] and in assay [5] was “Not Active” in each case.

On to `CN1C(=O)CN=C(c2ccccc2)c2cc(Cl)ccc21` [DIAZEPAM], for which the IC50 result in assay [1] (sf9), in assay [2], in assay [3], in assay [4] and in assay [5] was “Not Active” in each case. Moreover, the Ki result in assay [4] and in assay [5] was “Not Active” in each case.

For `Cc1c(N(C)CS(=O)(=O)[O-])c(=O)n(-c2ccccc2)n1C.[Na+]` [DIPYRONE SODIUM], the IC50 result in assay [1] (sf9), in assay [2], in assay [3], in assay [4] and in assay [5] was “Not Active” each time. The Ki entry in assay [4] and in assay [5] was “Not Active” throughout.

With `CC(CCc1ccc(O)cc1)NCCc1ccc(O)c(O)c1` (centres undefined) [DOBUTAMINE], the IC50 result in assay [1] (sf9), in assay [2], in assay [3], in assay [4] and in assay [5] was “Not Active” each time. The Ki entry in assay [4] and in assay [5] was “Not Active” each time.

`CCn1cc(C(=O)O)c(=O)c2cc(F)c(N3CCNCC3)nc21` [ENOXACIN]: the IC50 entry in assay [1] (sf9), in assay [2], in assay [3], in assay [4] and in assay [5] was “Not Active” throughout. The Ki entry in assay [4] and in assay [5] was “Not Active” throughout.
